# Measured values taken from article PMC5502391 (Chemical Science, 2015).
# Molecular target: avidin-bound TOPI-5 (Gallus gallus, UniProt P02701)
# Assay: Displacement assay, TOPI-5–avidin complex
# Format: binding
# Details: complex 90 nM, compound 50 µM
# Sequence of avidin-bound TOPI-5 (P02701 25-152): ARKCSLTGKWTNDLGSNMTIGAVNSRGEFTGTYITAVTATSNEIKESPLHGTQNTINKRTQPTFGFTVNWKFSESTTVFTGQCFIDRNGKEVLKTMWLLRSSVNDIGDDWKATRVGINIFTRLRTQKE
smiles,measurement,value
O=C(O)CCCC[C@@H]1SC[C@@H]2NC(=O)N[C@@H]21 [biotin],displacement of avidin-bound TOPI-5,displacement
